According to US8884061B2, “Compositions and methods of use of electron transport system inhibitors” (priority 2006, dated 2014):
Read-outs that look alike come from different tables or passages of the source.

Tests used:
[1] = tested on: S. marsascens ATCC 14756; test: MIC, other bacteria (Table 3); type: cell-based; settings: inoculum size 10^6 CFU/ml
[2] = tested on: S. aureus ATCC 29213; test: MIC, other bacteria (Table 3); type: cell-based
[3] = tested on: MRSE 2442-05047; test: MIC, other bacteria (Table 3); type: cell-based, S. epidermidis; settings: inoculum size 10^6 CFU/ml
[4] = tested on: MRSA 2441-05112; test: MIC, other bacteria (Table 3); type: cell-based, S. aureus; settings: inoculum size 10^6 CFU/ml
[5] = tested on: MRSA 2441-05254; test: MIC, other bacteria (Table 3); type: cell-based, S. aureus; settings: inoculum size 10^6 CFU/ml
[6] = tested on: M. aurum; test: MIC, agar (7H11) dilution method; type: cell-based; settings: Mycolicibacterium aurum, read-out: Minimum inhibitory concentrations (MIC)
[7] = tested on: S. epidermidis ATCC 12228; test: MIC, other bacteria (Table 3); type: cell-based
[8] = tested on: E. faecium NCTC 12203 (VRE); test: MIC, other bacteria (Table 3); type: cell-based; settings: high level VCM-resistant, Van A, inoculum size 10^6 CFU/ml
[9] = tested on: M. kansasii NIHJ1619; test: MIC, agar (7H11) dilution method; type: cell-based; settings: Mycobacterium kansasii, read-out: Minimum inhibitory concentrations (MIC)
[10] = tested on: S. aureus ATCC 43300 (MRSA); test: MIC, other bacteria (Table 3); type: cell-based; settings: inoculum size 10^6 CFU/ml
[11] = tested on: M. intracellularae ATCC 15984; test: MIC, agar (7H11) dilution method; type: cell-based; settings: read-out: Minimum inhibitory concentrations (MIC)
[12] = tested on: M. tuberculosis Kurono; test: MIC, agar (7H11) dilution method; type: cell-based; settings: Mycobacterium tuberculosis, read-out: Minimum inhibitory concentrations (MIC)
[13] = tested on: K. pneumoniae ATCC 27736; test: MIC, other bacteria (Table 3); type: cell-based
[14] = tested on: E. faecalis ATCC 29212; test: MIC, other bacteria (Table 3); type: cell-based
[15] = tested on: MRSE 2442-05060; test: MIC, other bacteria (Table 3); type: cell-based, S. epidermidis; settings: inoculum size 10^6 CFU/ml
[16] = tested on: M. avium Flamingo; test: MIC, agar (7H11) dilution method; type: cell-based; settings: Mycobacterium avium, read-out: Minimum inhibitory concentrations (MIC)
[17] = tested on: E. coli ATCC 25922; test: MIC, other bacteria (Table 3); type: cell-based
[18] = tested on: M. smegmatis Takeo; test: MIC, agar (7H11) dilution method; type: cell-based; settings: Mycolicibacterium smegmatis, read-out: Minimum inhibitory concentrations (MIC)
[19] = tested on: MRSA 2441-05129; test: MIC, other bacteria (Table 3); type: cell-based, S. aureus; settings: inoculum size 10^6 CFU/ml
[20] = tested on: M. bovis BCG Tokyo; test: microbe, parasite or virus in culture; type: cell-based; settings: Mycobacterium tuberculosis variant bovis BCG, BCG, read-out: Minimum inhibitory concentrations (MIC)
[21] = tested on: E. faecalis ATCC 51299 (VRE); test: MIC, other bacteria (Table 3); type: cell-based; settings: low level VCM-resistant, Van B, inoculum size 10^6 CFU/ml
[22] = tested on: MRSA 2441-05262; test: MIC, other bacteria (Table 3); type: cell-based, S. aureus; settings: inoculum size 10^6 CFU/ml
[23] = tested on: M. fortuitum NIHJ1615; test: MIC, agar (7H11) dilution method; type: cell-based; settings: Mycolicibacterium fortuitum, read-out: Minimum inhibitory concentrations (MIC)
[24] = tested on: MRSA 2441-05104; test: MIC, other bacteria (Table 3); type: cell-based, S. aureus; settings: inoculum size 10^6 CFU/ml
[25] = tested on: P. mirabilis ATCC 4630; test: MIC, other bacteria (Table 3); type: cell-based
[26] = tested on: P. aeruginosa ATCC 27853; test: MIC, other bacteria (Table 3); type: cell-based
[27] = tested on: MRSE 2442-05053; test: MIC, other bacteria (Table 3); type: cell-based, S. epidermidis; settings: inoculum size 10^6 CFU/ml
[28] = tested on: M. tuberculosis H37Rv; test: MIC, agar (7H11) dilution method; type: cell-based; settings: Mycobacterium tuberculosis, H37RV
[29] = tested on: E. faecalis NCTC 12201 (VRE); test: MIC, other bacteria (Table 3); type: cell-based; settings: high level VCM-resistant, Van A, inoculum size 10^6 CFU/ml
[30] = tested on: MRSE 2442-05030; test: MIC, other bacteria (Table 3); type: cell-based, S. epidermidis; settings: inoculum size 10^6 CFU/ml
[31] = tested on: MRSE 2442-05118; test: MIC, other bacteria (Table 3); type: cell-based, S. epidermidis; settings: inoculum size 10^6 CFU/ml
[32] = tested on: E. faecium ATCC 49224; test: MIC, other bacteria (Table 3); type: cell-based; settings: E. faecium ATCC 49224, GM-resistant, inoculum size 10^6 CFU/ml
[33] = tested on: MRSA 2441-05223; test: MIC, other bacteria (Table 3); type: cell-based, S. aureus; settings: inoculum size 10^6 CFU/ml
[34] = tested on: MRSE 2442-05110; test: MIC, other bacteria (Table 3); type: cell-based, S. epidermidis; settings: inoculum size 10^6 CFU/ml
[35] = tested on: VRSA 2441-T0041; test: MIC, other bacteria (Table 3); type: cell-based, S. aureus
[36] = tested on: VRSA 2441-T0044; test: MIC, other bacteria (Table 3); type: cell-based, S. aureus
[37] = Staphylococcus aureus, ATCC29213, inoculum size 10^6 CFU/ml, read-out: MIC
[38] = Staphylococcus epidermidis, read-out: MIC
[39] = Staphylococcus aureus, read-out: MIC
[40] = Staphylococcus epidermidis, ATCC12228, inoculum size 10^6 CFU/ml, read-out: MIC
[41] = Enterococcus faecium, read-out: MIC
[42] = Klebsiella pneumoniae, ATCC27736, inoculum size 10^6 CFU/ml, read-out: MIC
[43] = Enterococcus faecalis, ATCC29212, inoculum size 10^6 CFU/ml, read-out: MIC
[44] = Escherichia coli, ATCC25922, inoculum size 10^6 CFU/ml, read-out: MIC
[45] = Enterococcus faecalis, read-out: MIC
[46] = Proteus mirabilis, ATCC4630, inoculum size 10^6 CFU/ml, read-out: MIC
[47] = Pseudomonas aeruginosa, ATCC27853, inoculum size 10^6 CFU/ml, read-out: MIC
[48] = Enterococcus faecium, ATCC49224, read-out: MIC
[49] = VRSA 2441-T0044, low level VCM-resistant, inoculum size 10^6 CFU/ml
[50] = VRSA 2441-T0041, low level VCM-resistant, inoculum size 10^6 CFU/ml

Measured: MIC

C=CCN(C)CCCCCCCCOc1ccc(C(=O)c2ccc(Cl)cc2)c(O)c1 [Cpd #22, (4-(8-(allyl(methyl)amino)octyloxy)-2-hydroxyphenyl)(4-chlorophenyl)methanone]
50 µg/mL: [5]; [39] | [17]; [44] | [19]; [39]
> 100 µg/mL: [1]; read-out: MIC | [13]; [42] | [25]; [46] | [26]; [47]
1.56 µg/mL: [12] | [28]; read-out: Minimum inhibitory concentrations (MIC), M. tuberculosis H37Rv, table line r7 (1st of 5 so labelled) | [28]; read-out: Minimum inhibitory concentrations (MIC), M. tuberculosis H37Rv, table line r8 (2nd of 5 so labelled) | [28]; read-out: Minimum inhibitory concentrations (MIC), M. tuberculosis H37Rv, table line r9 (3rd of 5 so labelled) | [28]; read-out: Minimum inhibitory concentrations (MIC), M. tuberculosis H37Rv, table line r10 (4th of 5 so labelled)
3.13 µg/mL: [20] | [28]; read-out: Minimum inhibitory concentrations (MIC), M. tuberculosis H37Rv, table line r11 (5th of 5 so labelled)
12.5 µg/mL: [3]; [38] | [7]; [40] | [14]; [43] | [15]; [38] | [18] | [21]; [45] | [23] | [27]; [38] | [29]; [45] | [30]; [38] | [31]; [38] | [32]; [48] | [34]; [38]
25 µg/mL: [2]; [37] | [4]; [39] | [10]; [39] | [22]; [39] | [24]; [39] | [33]; [39] | [35]; Staphylococcus aureus, VRSA 2441-T0041, low level VCM-resistant, inoculum size 10^6 CFU/ml, read-out: MIC
6.25 µg/mL: [6] | [8]; [41] | [9] | [11] | [16]

CC1COc2c(N3CCN(C)CC3)c(F)cc3c(=O)c(C(=O)O)cn1c23 (stereo not drawn) [OFLX, ofloxacin, reference compound]
1.56 µg/mL: [14]; [43] | [21]; [45] | [29]; [45]
0.39 µg/mL: [10]; [39] | [25]; [46]
1.25 µg/mL: [36]; Staphylococcus aureus, VRSA | [35]; Staphylococcus aureus, VRSA
50 µg/mL: [4]; [39] | [5]; [39] | [22]; [39]
0.024 µg/mL: [1]; read-out: MIC
0.2 µg/mL: [2]; [37] | [7]; [40] | [13]; [42] | [33]; [39]
3.13 µg/mL: [8]; [41] | [26]; [47] | [32]; [48]
1 µg/mL: [19]; [39]
25 µg/mL: [24]; [39]
6.25 µg/mL: [3]; [38] | [15]; [38] | [27]; [38] | [30]; [38] | [31]; [38] | [34]; [38]
0.05 µg/mL: [17]; [44]

COc1cccc(OC)c1C(=O)N[C@@H]1C(=O)N2[C@@H]1SC(C)(C)[C@@H]2C(=O)O [DMPPC, reference compound]
125 µg/mL: [33]
200 µg/mL: [15] | [31]
3.13 µg/mL: [10] | [27] | [34]
>400 µg/mL: [1] | [5] | [8] | [13]; inoculum size 10^6 CFU/ml | [17]; inoculum size 10^6 CFU/ml | [19] | [22] | [25]; inoculum size 10^6 CFU/ml | [26]; inoculum size 10^6 CFU/ml | [36]; [49] | [32] | [35]; [50]
100 µg/mL: [24] | [29]
25 µg/mL: [14]; inoculum size 10^6 CFU/ml
1.56 µg/mL: [2]; inoculum size 10^6 CFU/ml | [7]; inoculum size 10^6 CFU/ml | [30]
400 µg/mL: [3] | [4]
50 µg/mL: [21]

CN[C@H](CC(C)C)C(=O)N[C@H]1C(=O)N[C@@H](CC(N)=O)C(=O)N[C@H]2C(=O)N[C@H]3C(=O)N[C@H](C(=O)N[C@H](C(=O)O)c4cc(O)cc(O)c4-c4cc3ccc4O)[C@H](O)c3ccc(c(Cl)c3)Oc3cc2cc(c3O[C@@H]2O[C@H](CO)[C@@H](O)[C@H](O)[C@H]2O[C@H]2C[C@](C)(N)[C@H](O)[C@H](C)O2)Oc2ccc(cc2Cl)[C@H]1O [VCM, reference compound]
0.78 µg/mL: [2]; inoculum size 10^6 CFU/ml | [4] | [10] | [19] | [22] | [24] | [33]
6.25 µg/mL: [36]; [49]
1.25 µg/mL: [21]
1.56 µg/mL: [3] | [5] | [7]; inoculum size 10^6 CFU/ml | [15] | [27] | [31] | [34]
>100 µg/mL: [1] | [8] | [13]; inoculum size 10^6 CFU/ml | [17]; inoculum size 10^6 CFU/ml | [25]; inoculum size 10^6 CFU/ml | [26]; inoculum size 10^6 CFU/ml | [29]
3.13 µg/mL: [14]; inoculum size 10^6 CFU/ml | [30] | [32] | [35]; [50]
